Experimental data reported in patent US20170233413A1, “SUBSTITUTED ANNULATED PYRIMIDINES AND USE THEREOF” (Bayer Pharma Aktiengesellschaft, priority 2014, published 2017).

Experiments:
[1] = target: T1, recombinant guanylate cyclase reporter cell line (Rattus norvegicus, UniProt P19686+P20595); assay: Effect on a recombinant guanylate cyclase reporter cell line; format: cell-based; details: MEC = minimum effective concentration; in some cases means of individual determinations
T1 construct: expressed in transfected cells
T1 sequence (P19686 1-690): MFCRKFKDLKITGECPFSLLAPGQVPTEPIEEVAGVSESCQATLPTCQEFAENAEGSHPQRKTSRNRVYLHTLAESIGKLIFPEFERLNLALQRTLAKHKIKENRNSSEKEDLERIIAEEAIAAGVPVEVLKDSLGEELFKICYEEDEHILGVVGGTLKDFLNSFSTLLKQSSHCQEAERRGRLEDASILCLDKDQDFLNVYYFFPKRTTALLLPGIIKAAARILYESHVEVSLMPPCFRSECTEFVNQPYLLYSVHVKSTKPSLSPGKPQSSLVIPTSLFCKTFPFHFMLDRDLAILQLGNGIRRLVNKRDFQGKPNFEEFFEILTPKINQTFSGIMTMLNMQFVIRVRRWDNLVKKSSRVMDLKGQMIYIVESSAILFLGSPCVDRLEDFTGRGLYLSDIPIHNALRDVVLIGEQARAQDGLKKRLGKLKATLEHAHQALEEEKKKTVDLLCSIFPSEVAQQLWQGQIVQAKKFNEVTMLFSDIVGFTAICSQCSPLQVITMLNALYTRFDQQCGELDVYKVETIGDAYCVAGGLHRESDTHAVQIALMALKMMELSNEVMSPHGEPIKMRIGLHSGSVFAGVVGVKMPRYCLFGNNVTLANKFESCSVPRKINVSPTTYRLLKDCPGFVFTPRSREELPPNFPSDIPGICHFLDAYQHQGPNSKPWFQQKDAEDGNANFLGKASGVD
T1 sequence (P20595 1-619): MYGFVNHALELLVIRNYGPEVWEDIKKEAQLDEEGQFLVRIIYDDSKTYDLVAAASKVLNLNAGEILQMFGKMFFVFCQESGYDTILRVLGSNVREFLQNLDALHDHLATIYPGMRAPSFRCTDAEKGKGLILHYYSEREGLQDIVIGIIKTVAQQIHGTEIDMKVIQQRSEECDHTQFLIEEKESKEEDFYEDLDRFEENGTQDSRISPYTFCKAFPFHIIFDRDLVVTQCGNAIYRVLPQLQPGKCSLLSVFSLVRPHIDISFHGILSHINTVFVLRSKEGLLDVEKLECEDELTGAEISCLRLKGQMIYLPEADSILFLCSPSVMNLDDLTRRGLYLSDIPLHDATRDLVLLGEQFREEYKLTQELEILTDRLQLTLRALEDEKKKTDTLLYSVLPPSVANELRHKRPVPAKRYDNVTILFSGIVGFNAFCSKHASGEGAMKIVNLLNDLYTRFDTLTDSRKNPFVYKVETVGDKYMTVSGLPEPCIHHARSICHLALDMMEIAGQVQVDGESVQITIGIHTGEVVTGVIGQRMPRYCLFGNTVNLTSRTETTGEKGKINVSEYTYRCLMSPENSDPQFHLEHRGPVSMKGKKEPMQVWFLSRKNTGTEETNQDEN
Protocol: B-2. Effect on a Recombinant Guanylate Cyclase Reporter Cell Line
The cellular activity of the compounds of the invention is determined using a recombinant guanylate cyclase reporter cell line, as described in F. Wunder et al., Anal. Biochem. 2005, 339, 104-112. Representative values (MEC=minimum effective concentration) for the compounds of the invention are shown in the table below (Table 1B; in some cases as means of individual determinations): […]

[2] = target: T2, human phosphodiesterase 5 (PDE 5) (Homo sapiens, UniProt O76074); assay: Inhibition of human phosphodiesterase 5 (PDE 5); format: biochemical; details: PDE 5 preparation from human platelets; in some cases means of individual determinations
T2 construct: PDE 5 preparations are obtained from human platelets by disruption; from tissue; host or cells: human platelets
Protocol: B-3. Inhibition of Human Phosphodiesterase 5 (PDE 5)
PDE 5 preparations are obtained from human platelets by disruption (Microfluidizer®, 800 bar, 3 passes), followed by centrifugation (75 000 g, 60 min, 4° C.) and ion exchange chromatography of the supernatant on a Mono Q 10/10 column (linear sodium chloride gradient, elution with a 0.2-0.3M solution of sodium chloride in buffer (20 mM Hepes pH 7.2, 2 mM magnesium chloride). Fractions having PDE 5 activity are combined (PDE 5 preparation) and stored at −80° C.
To determine their in vitro action on human PDE 5, the test substances are dissolved in 100% DMSO and serially diluted. Typically, dilution series (1:3) from 200 μM to 0.091 μM are prepared (resulting final concentrations in the test: 4 μM to 0.0018 μM). In each case 2 μl of the diluted substance solutions are placed into the wells of microtitre plates (Isoplate-96/200W; Perkin Elmer). Subsequently, 50 μl of a dilution of the above-described PDE 5 preparation are added. The dilution of the PDE 5 preparation is chosen such that during the later incubation less than 70% of the substrate are converted (typical dilution: 1:100; dilution buffer: 50 mM tris/hydrochloric acid pH 7.5, 8.3 mM magnesium chloride, 1.7 mM EDTA, 0.2% BSA). The substrate, [8-^3H] cyclic guanosine-3′,5′-monophosphate (1 μCi/μl; Perkin Elmer), is diluted 1:2000 with assay buffer (50 mM tris/hydrochloric acid pH 7.5, 8.3 mM magnesium chloride, 1.7 mM EDTA) to a concentration of 0.0005 μCi/μl. By addition of 50 μl (0.025 μCi) of the diluted substrate, the enzyme reaction is finally started. The test mixtures are incubated at room temperature for 60 min and the reaction is stopped by adding 25 μl of a suspension of 18 mg/ml yttrium scintillation proximity beads in water (phosphodiesterase beads for SPA assays, RPNQ 0150, Perkin Elmer). The microtitre plates are sealed with a film and left to stand at room temperature for 60 min. Subsequently, the plates are analysed for 30 s per well in a Microbeta scintillation counter (Perkin Elmer). IC50 values are determined using the graphic plot of the substance concentration against percentage PDE 5 inhibition.

SMILES	MEC [1] [µM]	IC50 [2] [nM]
CC1(C)C(=O)Nc2nc(-c3nn(Cc4ccccc4F)c4ncccc34)nc(C(=O)NCC(N)=O)c21 [Example 75, N-(2-amino-2-oxoethyl)-2-[1-(2-fluorobenzyl)-1H-pyrazolo[3,4-b]pyridin-3-yl]-5,5-dimethyl-6-oxo-6,7-dihydro-5H-pyrrolo[2,3-d]pyrimidine-4-carboxamide]	0.3	–
CCCCNC(=O)c1nc(-c2nn(Cc3ccccc3F)c3ncccc23)nc2c1C(C)(C)C(=O)N2 [Example 121, N-butyl-2-[1-(2-fluorobenzyl)-1H-pyrazolo[3,4-b]pyridin-3-yl]-5,5-dimethyl-6-oxo-6,7-dihydro-5H-pyrrolo[2,3-d]pyrimidine-4-carboxamide]	0.3	27
CSCCCNC(=O)c1nc(-c2nn(Cc3ccccc3F)c3ncccc23)nc2c1C(C)(C)C(=O)N2 [Example 61, 2-[1-(2-fluorobenzyl)-1H-pyrazolo[3,4-b]pyridin-3-yl]-5,5-dimethyl-N-[3-(methylsulfanyl)propyl]-6-oxo-6,7-dihydro-5H-pyrrolo[2,3-d]pyrimidine-4-carboxamide]	0.1	16
CC1(C)C(=O)Nc2nc(-c3nn(Cc4ccccc4F)c4cc(Cl)ccc34)nc(C(=O)NCC(F)(F)F)c21 [Example 44]	0.3	110
C=CCONC(=O)c1nc(-c2nn(Cc3ccccc3F)c3ncccc23)nc2c1C(C)(C)C(=O)N2 [Example 62, 2-[1-(2-fluorobenzyl)-1H-pyrazolo[3,4-b]pyridin-3-yl]-5,5-dimethyl-6-oxo-N-(prop-2-en-1-yloxy)-6,7-dihydro-5H-pyrrolo[2,3-d]pyrimidine-4-carboxamide]	0.1	18
Cc1cnccc1NC(=O)c1nc(-c2nn(Cc3ccccc3F)c3ncccc23)nc2c1C(C)(C)C(=O)N2 [Example 101, 2-[1-(2-fluorobenzyl)-1H-pyrazolo[3,4-b]pyridin-3-yl]-5,5-dimethyl-N-(3-methylpyridin-4-yl)-6-oxo-6,7-dihydro-5H-pyrrolo[2,3-d]pyrimidine-4-carboxamide]	0.3	–
CN(CCC(N)=O)C(=O)c1nc(-c2nn(Cc3ccccc3F)c3ncccc23)nc2c1C(C)(C)C(=O)N2 [Example 110, N-(3-amino-3-oxopropyl)-2-[1-(2-fluorobenzyl)-1H-pyrazolo[3,4-b]pyridin-3-yl]-N,5,5-trimethyl-6-oxo-6,7-dihydro-5H-pyrrolo[2,3-d]pyrimidine-4-carboxamide]	1	–

More lines, now with the values ahead:

MEC [1] [µM]	IC50 [2] [nM]	SMILES
0.1	13	CC1(C)C(=O)Nc2nc(-c3nn(Cc4ccccc4F)c4ncccc34)nc(C(=O)NCCF)c21 [Example 83, 2-[1-(2-fluorobenzyl)-1H-pyrazolo[3,4-b]pyridin-3-yl]-N-(2-fluoroethyl)-5,5-dimethyl-6-oxo-6,7-dihydro-5H-pyrrolo[2,3-d]pyrimidine-4-carboxamide]
0.3	52	CC1(C)C(=O)Nc2nc(-c3nn(Cc4ccccc4F)c4ncccc34)nc(C(=O)NCCSC(F)(F)F)c21 [Example 73, 2-[1-(2-fluorobenzyl)-1H-pyrazolo[3,4-b]pyridin-3-yl]-5,5-dimethyl-6-oxo-N-{2-[(trifluoromethyl)sulfanyl]ethyl}-6,7-dihydro-5H-pyrrolo[2,3-d]pyrimidine-4-carboxamide]
1	23	C[C@H](NC(=O)c1nc(-c2nn(Cc3ccccc3F)c3ncccc23)nc2c1C(C)(C)C(=O)N2)C(N)=O [Example 80, N-[(2S)-1-amino-1-oxopropan-2-yl]-2-[1-(2-fluorobenzyl)-1H-pyrazolo[3,4-b]pyridin-3-yl]-5,5-dimethyl-6-oxo-6,7-dihydro-5H-pyrrolo[2,3-d]pyrimidine-4-carboxamide]
6.5	1300	CC1(C(F)(F)F)C(=O)Nc2nc(-c3nn(Cc4ncccc4F)c4ncc(F)cc34)nc(C(N)=O)c21 (single isomer, unassigned; ent-2) [Example 23, ent-2-{5-Fluoro-1-[(3-fluoropyridin-2-yl)methyl]-1H-pyrazolo[3,4-b]pyridin-3-yl}-5-methyl-6-oxo-5-(trifluoromethyl)-6,7-dihydro-5H-pyrrolo[2,3-d]pyrimidine-4-carboxamide (enantiomer B)]
1	–	CCCCCCNC(=O)c1nc(-c2nn(Cc3ccccc3F)c3ncccc23)nc2c1C(C)(C)C(=O)N2 [Example 124, 2-[1-(2-fluorobenzyl)-1H-pyrazolo[3,4-b]pyridin-3-yl]-N-hexyl-5,5-dimethyl-6-oxo-6,7-dihydro-5H-pyrrolo[2,3-d]pyrimidine-4-carboxamide]
0.3	–	CC(C)(C)CNC(=O)c1nc(-c2nn(Cc3ccccc3F)c3ncccc23)nc2c1C(C)(C)C(=O)N2 [Example 102, N-(2,2-dimethylpropyl)-2-[1-(2-fluorobenzyl)-1H-pyrazolo[3,4-b]pyridin-3-yl]-5,5-dimethyl-6-oxo-6,7-dihydro-5H-pyrrolo[2,3-d]pyrimidine-4-carboxamide]
1	–	CC(C)(C)CCNC(=O)c1nc(-c2nn(Cc3ccccc3F)c3ncccc23)nc2c1C(C)(C)C(=O)N2 [Example 135, N-(3,3-dimethylbutyl)-2-[1-(2-fluorobenzyl)-1H-pyrazolo[3,4-b]pyridin-3-yl]-5,5-dimethyl-6-oxo-6,7-dihydro-5H-pyrrolo[2,3-d]pyrimidine-4-carboxamide]
0.3	–	Cc1cc(NC(=O)c2nc(-c3nn(Cc4ccccc4F)c4ncccc34)nc3c2C(C)(C)C(=O)N3)ccn1 [Example 106, 2-[1-(2-fluorobenzyl)-1H-pyrazolo[3,4-b]pyridin-3-yl]-5,5-dimethyl-N-(2-methylpyridin-4-yl)-6-oxo-6,7-dihydro-5H-pyrrolo[2,3-d]pyrimidine-4-carboxamide]
1	–	CC1(C)C(=O)Nc2nc(-c3nn(Cc4ccccc4F)c4ncccc34)nc(C(=O)Nc3ccncc3)c21 [Example 116, 2-[1-(2-fluorobenzyl)-1H-pyrazolo[3,4-b]pyridin-3-yl]-5,5-dimethyl-6-oxo-N-(pyridin-4-yl)-6,7-dihydro-5H-pyrrolo[2,3-d]pyrimidine-4-carboxamide]
